The target of this test is T1, human GABAA α5β3γ2s receptor (Homo sapiens, UniProt P18507+P31644).
T1 sequence (P18507 1-475): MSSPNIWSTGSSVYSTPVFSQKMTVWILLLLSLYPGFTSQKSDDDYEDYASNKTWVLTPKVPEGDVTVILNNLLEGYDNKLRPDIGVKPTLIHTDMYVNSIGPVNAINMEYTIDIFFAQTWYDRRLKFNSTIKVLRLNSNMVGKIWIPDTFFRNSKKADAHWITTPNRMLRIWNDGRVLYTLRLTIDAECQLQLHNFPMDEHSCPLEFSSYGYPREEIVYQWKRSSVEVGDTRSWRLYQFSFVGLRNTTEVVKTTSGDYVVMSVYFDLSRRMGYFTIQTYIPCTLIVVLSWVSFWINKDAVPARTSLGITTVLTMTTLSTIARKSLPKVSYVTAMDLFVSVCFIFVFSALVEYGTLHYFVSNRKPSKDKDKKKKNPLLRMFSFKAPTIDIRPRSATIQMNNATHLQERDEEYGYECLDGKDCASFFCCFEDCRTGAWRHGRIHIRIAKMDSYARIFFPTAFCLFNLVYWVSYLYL
T1 sequence (P31644 1-462): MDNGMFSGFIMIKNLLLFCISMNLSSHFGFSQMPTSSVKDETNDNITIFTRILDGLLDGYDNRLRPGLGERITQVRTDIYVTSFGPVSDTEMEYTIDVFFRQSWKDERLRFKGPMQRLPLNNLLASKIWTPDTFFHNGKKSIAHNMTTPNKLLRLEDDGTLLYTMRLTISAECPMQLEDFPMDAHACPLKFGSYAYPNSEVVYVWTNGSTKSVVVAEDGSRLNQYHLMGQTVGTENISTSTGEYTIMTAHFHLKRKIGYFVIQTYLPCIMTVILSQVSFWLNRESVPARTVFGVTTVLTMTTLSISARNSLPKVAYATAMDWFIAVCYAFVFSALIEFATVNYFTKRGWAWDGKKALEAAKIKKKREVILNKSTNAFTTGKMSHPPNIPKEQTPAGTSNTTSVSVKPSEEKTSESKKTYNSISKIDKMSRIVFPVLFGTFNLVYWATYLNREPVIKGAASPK
The experiment in a line: Assay A: in vitro inhibition of 3H-flumazenil binding, HEK cells expressing human GABAA α5β3γ2s receptor. The following applies: 3H-flumazenil 1 nM, HEK-293 membranes, 40 min at 2° C.; Ki from IC50 by Cheng and Prusoff. The procedure: HEK-293 cell lines with stable expression of recombinant human GABAA α5β3γ2s receptors (plasmid H46/E9/B10) are seeded in T175 polystyrene flasks or roller bottles (1700 cm^2, Fisher Scientific CCI-431191), and cultured (37 C, 5% CO˜) in Dulbecco's Modified Eagle Medium (DMEM) with GlutaMAX™ supplemented with 10% fetal bovine serum and one or both of the following antibiotics: hygromycin B ([…]; γ2 subunit) or G418 (0.5 mg/ml; […]).
When the cultures reach confluency, the DMEM is removed and the cells are washed (10 ml for T175 flasks; 50 ml for roller bottles) once in Dulbecco's Phosphate Buffered Saline (DPBS). Following addition of DPBS to the cultures (10 ml for T175 flasks; 100 ml for roller bottles) for approximately 5 min cells are easily detached from the surface by shaking or tapping the flask gently. The cell suspension is transferred to Falcon tubes and centrifuged at 23,500×g for 10 min at 2° C. The pellet is washed once in 15 ml Tris-citrate buffer (50 mM, pH 7.1) using an Ultra-Turrax homogenizer and centrifuged at 2° C. for 10 min at 27,000×g. The washed pellet is re-suspended in 15 ml Tris-citrate buffer and frozen at −80° C. until the day of the binding experiment.
On the day of the experiment the cell membrane preparation is thawed and centrifuged at 2° C. for 10 min at 27,000×g. The pellet is re-suspended, using an Ultra-Turrax homogenizer in Tris-citrate buffer, to 15-50 µg protein per assay and then used for binding assays.
Non-specific binding is determined using clonazepam (1 μM, final concentration).
All dilutions of test compounds and incubation of assay are performed in glass vials/96-vial plates. […] Compounds are dissolved in 100% DMSO (10 mM stock), diluted in 48% ethanol-water, and tested in triplicate in serial 1:3 or 1:10 dilutions. When screening large numbers of compounds only one concentration of each compound is tested in single wells. Reference compounds are not included routinely, but for each experiment performed total and nonspecific binding is compared to data obtained during validation of the assay.
Binding is either terminated by rapid filtration onto
1) Whatman GF/C glass fibre filters using a Brandel Cell harvester, followed by 5 washes with 1 ml ice-cold buffer or onto 2) UniFilter GF/C glass fibre filter plates using a Tomtec cell harvester, followed by washing with approximately 5 ml ice-cold buffer.
The amount of radioactivity on the filters is determined by conventional liquid scintillation counting using a
1) Tri-Garb™ counter (PerkinElmer Life and Analytical Sciences) for separate large filters or
2) Topcount™ counter (PerkinElmer Life and Analytical Sciences) for 96-well filter plates. Specific binding is total binding minus non-specific binding.
For screening purposes n is set to 1. The IC50 value is calculated from the concentration response curves by the non-linear regression method using the curve-fitting program GraphPad Prism. […]

For orientation: Ki means a measure of affinity in units of concentration, obtained from inhibition or displacement. A high value points to weaker binding. For the compound `Cc1nnn(-c2ccc(C(F)F)cc2)c1COc1ccc(-n2ccc(C(N)=O)n2)nn1` [Example 21], affinity was put at a Ki of 0.047 nM.
With `CCn1cc(-c2ccc(OCc3c(C)nnn3-c3ccc(C(F)F)cc3)nn2)cn1` [Example 7] the figure was 0.032 nM.
With `Cc1nnn(-c2ccc(C(F)F)cc2)c1COc1ccc(-c2cncnc2)nn1` [Example 22] the figure was 0.11 nM.
With `Cc1nnn(-c2ccc(C(F)F)cc2)c1COc1ccc(-n2cc(C#N)cn2)nn1` [Example 31] the figure was 0.21 nM.
Turning to `Cc1nnn(-c2ccc(C(F)F)cc2)c1COc1ccc(-c2cnn(C3CC3)c2)nn1` [Example 9], the Ki came to 0.25 nM.
For `Cc1nnn(-c2ccc(C(F)F)cc2)c1COc1ccc(-n2cnc(C=O)c2)nn1` [Example 17], the Ki stood at 0.089 nM.
With `COC(=O)c1cn(-c2ccc(OCc3c(C)nnn3-c3ccc(C(F)F)cc3)nn2)cn1` [Example 29] the figure was 0.063 nM.
Take `Cc1nnn(-c2ccc(C(F)F)cc2)c1COc1ccc(-n2cc3c(n2)CCNC3=O)nn1` [Example 26]: the Ki amounted to 0.12 nM.
With `Cc1ncc(-c2ccc(OCc3c(C)nnn3-c3ccc(C(F)F)cc3)nn2)o1` [Example 6] the figure was 0.11 nM.
For `Cc1nnn(-c2ccc(C(F)F)cc2)c1COc1ccc(-n2ccc(C#N)n2)nn1` [Example 20], the affinity corresponds to a Ki of 0.009 nM.
Consider `Cc1nnn(-c2ccc(C(F)F)cc2)c1COc1ccc(-c2cnn(C)c2)nn1` [Example 5], for which the affinity, expressed as Ki, was 0.11 nM.
With `Cc1ncn(-c2ccc(OCc3c(C)nnn3-c3ccc(C(F)F)cc3)nn2)n1` [Example 33] the figure was 0.163 nM; with `Cc1nnn(-c2ccc(C(F)F)cc2)c1COc1ccc(-n2cnc(C(C)(C)O)c2)nn1` [Example 39, 2-{1-[6-({1-[4-(difluoromethyl)phenyl]-4-methyl-1H-1,2,3-triazol-5-yl}methoxy)pyridazin-3-yl]-1H-imidazol-4-yl}propan-2-ol], 0.14 nM.
With `Cc1nnn(-c2ccc(C(F)F)cc2)c1COc1ccc(-c2cnc(OCC(C)(C)O)nc2)nn1` [Example 4] the figure was 0.87 nM; with `Cc1nnn(-c2ccc(C(F)F)cc2)c1COc1ccc(-n2cnc(CO)c2)nn1` [Example 38, {1-[6-({1-[4-(difluoromethyl)phenyl]-4-methyl-1H-1,2,3-triazol-5-yl}methoxy)pyridazin-3-yl]-1H-imidazol-4-yl}methanol], 0.2 nM; with `Cc1nnn(-c2ccc(C(F)F)cc2)c1COc1ccc(-n2cnc(C(C)O)c2)nn1` (centres unmarked) [Example 40], 0.16 nM.
With `Cc1nnn(-c2ccc(C(F)F)cc2)c1COc1ccc(-n2ccc(C(F)(F)F)n2)nn1` [Example 24] the figure was 0.25 nM; with `Cc1cc(-c2ccc(OCc3c(C)nnn3-c3ccc(C(F)F)cc3)nn2)cnn1` [Example 11], 0.058 nM.
`CNC(=O)c1cn(-c2ccc(OCc3c(C)nnn3-c3ccc(C(F)F)cc3)nn2)cn1` [Example 14] returned a Ki of 0.071 nM.
With `Cc1nnn(-c2ccc(C(F)F)cc2)c1COc1ccc(-n2cnc(C(=O)O)c2)nn1` [Example 37, 1-[6-({1-[4-(difluoromethyl)phenyl]-4-methyl-1H-1,2,3-triazol-5-yl}methoxy)pyridazin-3-yl]-1H-imidazole-4-carboxylic acid] the figure was 0.81 nM.
Regarding `Cc1n[nH]c(C)c1-c1ccc(OCc2c(C)nnn2-c2ccc(C(F)F)cc2)nn1` [Example 12, 3-({1-[4-(difluoromethyl)phenyl]-4-methyl-1H-1,2,3-triazol-5-yl}methoxy)-6-(3,5-dimethyl-1H-pyrazol-4-yl)pyridazine], the affinity corresponds to a Ki of 0.9 nM.
With `Cc1nnn(-c2ccc(C(F)F)cc2)c1COc1ccc(-n2cc(C(F)(F)F)cn2)nn1` [Example 25] the figure was 0.35 nM; with `CC(=O)c1cn(-c2ccc(OCc3c(C)nnn3-c3ccc(C(F)F)cc3)nn2)cn1` [Example 32], 0.039 nM.
With `Cc1nnn(-c2ccc(C(F)F)cc2)c1COc1ccc(-n2cnc(C[N+](C)(C)C)c2)nn1.O=C([O-])C(F)(F)F` [Example 36, ({1-[6-({1-[4-(difluoromethyl)phenyl]-4-methyl-1H-1,2,3-triazol-5-yl}methoxy)pyridazin-3-yl]-1H-imidazol-4-yl}methyl)trimethylazanium trifluoroacetate], the affinity corresponds to a Ki of 0.12 nM.
As to `COc1ncc(-c2ccc(OCc3c(C)nnn3-c3ccc(C(F)F)cc3)nn2)cn1` [Example 3], the Ki came to 0.16 nM.
With `Cc1nnn(-c2ccc(C(F)F)cc2)c1COc1ccc(-n2cnc(C(F)F)c2)nn1` [Example 15], the Ki worked out at 0.11 nM.
With `Cc1nnn(-c2ccc(C(F)F)cc2)c1COc1ccc(-n2cnc(Cl)c2)nn1` [Example 18] the figure was 0.056 nM; with `Cc1nnn(-c2ccc(C(F)F)cc2)c1COc1ccc(-c2cncc(-n3ccnc3)c2)nn1` [Example 8], 0.055 nM.
`Cc1nnn(-c2ccc(C(F)F)cc2)c1COc1ccc(-n2cnc(S(C)(=O)=O)c2)nn1` [Example 19]: the affinity, expressed as Ki, was 0.38 nM.
With `Cc1nnn(-c2ccc(C(F)F)cc2)c1COc1ccc(-n2cnc(C(N)=O)c2)nn1` [Example 27, 1-[6-({1-[4-(difluoromethyl)phenyl]-4-methyl-1H-1,2,3-triazol-5-yl}methoxy)pyridazin-3-yl]-1H-imidazole-4-carboxamide] the figure was 0.036 nM; with `Cc1nnn(-c2ccc(C(F)F)cc2)c1COc1ccc(-n2cnc(CN)c2)nn1` [Example 35, {1-[6-({1-[4-(difluoromethyl)phenyl]-4-methyl-1H-1,2,3-triazol-5-yl}methoxy)pyridazin-3-yl]-1H-imidazol-4-yl}methanamine], 0.057 nM.
`Cc1nnn(-c2ccc(C(F)F)cc2)c1COc1ccc(-c2ccnc(O)c2)nn1` [Example 2, 4-[6-({1-[4-(difluoromethyl)phenyl]-4-methyl-1H-1,2,3-triazol-5-yl}methoxy)pyridazin-3-yl]pyridin-2-ol]: the Ki amounted to 0.086 nM.
